Data from PubChem BioAssay AID2060484 (Molecular Pharmacology Branch, DTP, NCI, 2025).

System: SUM149PT spheroids with HUVEC/MSC, viability
Test: Anticancer human tumor SUM149PT cell line growth inhibition [GQUAD];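 note: spheroids exposed to drugs for seven days before readout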;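 for viability, T/C: percent viability relative to DMSO vehicle control taken as 100%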
Conditions: for IC50: curve of first compound; for viability, T/C: stronger effect = lower value
Procedure, shortened: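 Multi-cell-type spheroids of tumor cells with HUVEC and mesenchymal stem cells, treated with drug combinations. Concentrations descend in half-log steps from near clinical Cmax, or from 10 microM where Cmax is unknown; viability read-out.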

[1] = second compound 0.0316 µM, first compound 0.0316 µM
[2] = second compound 0.0316 µM, first compound 0.1 µM
[3] = second compound 0.0316 µM, first compound 0.316 µM
[4] = second compound 0.0316 µM, first compound 1 µM
[5] = second compound 0.0316 µM, first compound 3.16 µM
[6] = second compound 0.0316 µM, first compound 10 µM
[7] = second compound 0.1 µM, first compound 0.0316 µM
[8] = second compound 0.1 µM, first compound 0.1 µM
[9] = second compound 0.1 µM, first compound 0.316 µM
[10] = second compound 0.1 µM, first compound 1 µM
[11] = second compound 0.1 µM, first compound 3.16 µM
[12] = second compound 0.1 µM, first compound 10 µM
[13] = second compound 0.316 µM, first compound 0.0316 µM
[14] = second compound 0.316 µM, first compound 0.1 µM
[15] = second compound 0.316 µM, first compound 0.316 µM
[16] = second compound 0.316 µM, first compound 1 µM
[17] = second compound 0.316 µM, first compound 3.16 µM
[18] = second compound 0.316 µM, first compound 10 µM
[19] = second compound 1 µM, first compound 0.0316 µM
[20] = second compound 1 µM, first compound 0.1 µM
[21] = second compound 1 µM, first compound 0.316 µM
[22] = second compound 1 µM, first compound 1 µM
[23] = second compound 1 µM, first compound 3.16 µM
[24] = second compound 1 µM, first compound 10 µM
[25] = second compound 3.16 µM, first compound 0.0316 µM
[26] = second compound 3.16 µM, first compound 0.1 µM
[27] = second compound 3.16 µM, first compound 0.316 µM
[28] = second compound 3.16 µM, first compound 1 µM
[29] = second compound 3.16 µM, first compound 3.16 µM
[30] = second compound 3.16 µM, first compound 10 µM
[31] = second compound 10 µM, first compound 0.0316 µM
[32] = second compound 10 µM, first compound 0.1 µM
[33] = second compound 10 µM, first compound 0.316 µM
[34] = second compound 10 µM, first compound 1 µM
[35] = second compound 10 µM, first compound 3.16 µM
[36] = second compound 10 µM, first compound 10 µM

CC(=O)O[C@H]1C(=O)[C@@]2(C)[C@H]([C@H](OC(=O)c3ccccc3)[C@]3(O)C[C@H](OC(=O)[C@H](O)[C@@H](NC(=O)c4ccccc4)c4ccccc4)C(C)=C1C3(C)C)[C@]1(OC(C)=O)CO[C@@H]1C[C@@H]2O + CN(C)c1ccc(Nc2c3ccc(NC(=O)CCN4CCCC4)cc3nc3cc(NC(=O)CCN4CCCC4)ccc23)cc1
IC50 (second compound 0.0316 µM): < 0.0316 µM
IC50 (second compound 0.1 µM): < 0.0316 µM
IC50 (second compound 0.316 µM): < 0.0316 µM
IC50 (second compound 1 µM): < 0.0316 µM
IC50 (second compound 3.16 µM): < 0.0316 µM
IC50 (second compound 10 µM): < 0.0316 µM
viability, T/C [1]: 31.9%
viability, T/C [2]: 25.3%
viability, T/C [3]: 23.8%
viability, T/C [4]: 19.5%
viability, T/C [5]: 19.8%
viability, T/C [6]: 23.6%
viability, T/C [7]: 32.8%
viability, T/C [8]: 24.7%
viability, T/C [9]: 21.6%
viability, T/C [10]: 17.8%
viability, T/C [11]: 19.6%
viability, T/C [12]: 25.7%
viability, T/C [13]: 30.6%
viability, T/C [14]: 25.6%
viability, T/C [15]: 22.8%
viability, T/C [16]: 18.3%
viability, T/C [17]: 17.2%
viability, T/C [18]: 22.8%
viability, T/C [19]: 29.6%
viability, T/C [20]: 24.4%
viability, T/C [21]: 16.5%
viability, T/C [22]: 13.8%
viability, T/C [23]: 17%
viability, T/C [24]: 19.2%
viability, T/C [25]: 27.7%
viability, T/C [26]: 21.1%
viability, T/C [27]: 17.5%
viability, T/C [28]: 12.9%
viability, T/C [29]: 15.7%
viability, T/C [30]: 16.2%
viability, T/C [31]: 26.8%
viability, T/C [32]: 23.3%
viability, T/C [33]: 15.8%
viability, T/C [34]: 14.5%
viability, T/C [35]: 15.7%
viability, T/C [36]: 18.2%

CCCS(=O)(=O)Nc1ccc(F)c(C(=O)c2c[nH]c3ncc(-c4ccc(Cl)cc4)cc23)c1F + CN(C)c1ccc(Nc2c3ccc(NC(=O)CCN4CCCC4)cc3nc3cc(NC(=O)CCN4CCCC4)ccc23)cc1
IC50 (second compound 0.0316 µM): 7.63 µM
IC50 (second compound 0.1 µM): 7.28 µM
IC50 (second compound 0.316 µM): 7.79 µM
IC50 (second compound 1 µM): 4.18 µM
IC50 (second compound 3.16 µM): 3.09 µM
IC50 (second compound 10 µM): 2.4 µM
viability, T/C [1]: 108%
viability, T/C [2]: 91.9%
viability, T/C [3]: 103%
viability, T/C [4]: 98.1%
viability, T/C [5]: 74.5%
viability, T/C [6]: 42.4%
viability, T/C [7]: 95.7%
viability, T/C [8]: 103%
viability, T/C [9]: 102%
viability, T/C [10]: 100%
viability, T/C [11]: 76.3%
viability, T/C [12]: 40%
viability, T/C [13]: 96.4%
viability, T/C [14]: 96.2%
viability, T/C [15]: 96.4%
viability, T/C [16]: 90%
viability, T/C [17]: 67%
viability, T/C [18]: 45.3%
viability, T/C [19]: 92.2%
viability, T/C [20]: 84.3%
viability, T/C [21]: 91%
viability, T/C [22]: 89.7%
viability, T/C [23]: 54.6%
viability, T/C [24]: 35.4%
viability, T/C [25]: 83.2%
viability, T/C [26]: 89.6%
viability, T/C [27]: 86.4%
viability, T/C [28]: 81.7%
viability, T/C [29]: 49.3%
viability, T/C [30]: 24%
viability, T/C [31]: 84.8%
viability, T/C [32]: 80.4%
viability, T/C [33]: 89.6%
viability, T/C [34]: 71.1%
viability, T/C [35]: 43.2%
viability, T/C [36]: 11.9%

Nc1ccn(C2OC(CO)C(O)C2(F)F)c(=O)n1 (stereo not drawn) + CN(C)c1ccc(Nc2c3ccc(NC(=O)CCN4CCCC4)cc3nc3cc(NC(=O)CCN4CCCC4)ccc23)cc1
IC50 (second compound 0.0316 µM): 0.11 µM
IC50 (second compound 0.1 µM): 0.173 µM
IC50 (second compound 0.316 µM): 0.128 µM
IC50 (second compound 1 µM): 0.0965 µM
IC50 (second compound 3.16 µM): 0.0628 µM
IC50 (second compound 10 µM): 0.0421 µM
viability, T/C [1]: 87.9%
viability, T/C [2]: 51%
viability, T/C [3]: 34.6%
viability, T/C [4]: 27.2%
viability, T/C [5]: 25.9%
viability, T/C [6]: 20.8%
viability, T/C [7]: 80.2%
viability, T/C [8]: 59.7%
viability, T/C [9]: 39.6%
viability, T/C [10]: 26.7%
viability, T/C [11]: 23.7%
viability, T/C [12]: 20.8%
viability, T/C [13]: 68.1%
viability, T/C [14]: 55.3%
viability, T/C [15]: 34.7%
viability, T/C [16]: 26.6%
viability, T/C [17]: 25.6%
viability, T/C [18]: 15.8%
viability, T/C [19]: 65.8%
viability, T/C [20]: 51.2%
viability, T/C [21]: 32.7%
viability, T/C [22]: 27.9%
viability, T/C [23]: 21.4%
viability, T/C [24]: 16.5%
viability, T/C [25]: 65.4%
viability, T/C [26]: 39.8%
viability, T/C [27]: 24.3%
viability, T/C [28]: 21.6%
viability, T/C [29]: 17.8%
viability, T/C [30]: 14.8%
viability, T/C [31]: 55.1%
viability, T/C [32]: 35.7%
viability, T/C [33]: 25%
viability, T/C [34]: 20.9%
viability, T/C [35]: 18.8%
viability, T/C [36]: 13.4%

O=c1[nH]cc(F)c(=O)[nH]1 + CN(C)c1ccc(Nc2c3ccc(NC(=O)CCN4CCCC4)cc3nc3cc(NC(=O)CCN4CCCC4)ccc23)cc1
IC50 (second compound 0.0316 µM): 8.99 µM
IC50 (second compound 0.1 µM): > 10 µM
IC50 (second compound 0.316 µM): 8.35 µM
IC50 (second compound 1 µM): 8.64 µM
IC50 (second compound 3.16 µM): 6.64 µM
IC50 (second compound 10 µM): 4.53 µM
viability, T/C [1]: 105%
viability, T/C [2]: 93.2%
viability, T/C [3]: 99.2%
viability, T/C [4]: 98.8%
viability, T/C [5]: 63.5%
viability, T/C [6]: 48.6%
viability, T/C [7]: 100%
viability, T/C [8]: 92%
viability, T/C [9]: 94.4%
viability, T/C [10]: 99.3%
viability, T/C [11]: 61.5%
viability, T/C [12]: 57.3%
viability, T/C [13]: 86.5%
viability, T/C [14]: 93.3%
viability, T/C [15]: 86.5%
viability, T/C [16]: 89.5%
viability, T/C [17]: 70%
viability, T/C [18]: 46.2%
viability, T/C [19]: 83.5%
viability, T/C [20]: 91.6%
viability, T/C [21]: 94.8%
viability, T/C [22]: 99.4%
viability, T/C [23]: 68.8%
viability, T/C [24]: 47.2%
viability, T/C [25]: 81.5%
viability, T/C [26]: 80%
viability, T/C [27]: 82.8%
viability, T/C [28]: 92.5%
viability, T/C [29]: 60%
viability, T/C [30]: 44.5%
viability, T/C [31]: 80.6%
viability, T/C [32]: 80.9%
viability, T/C [33]: 91.2%
viability, T/C [34]: 94%
viability, T/C [35]: 52.5%
viability, T/C [36]: 44.3%
